Assay [1] relates to β-catenin in HCT8 and DLD1 cells. The assay is described as follows: β-catenin signaling in colon cancer cells (western blot, fractionation, confocal). The assay is classed as cell-based, human. Conditions: HCT8 and DLD1 cells. On the procedure:
Colon carcinoma cells were grown on 8-well chamber slide (3×10^4/well, Millipore) overnight, followed by treatment with MakA for 6 or 24 hours and treated with either Alexa-568 labelled or unlabeled MakA (500 nM), fixed with 2% paraformaldehyde (20 min), permeabilized with Triton X (0.25%). Cells were incubated with anti-Ki67 (1:300), anti-β-catenin (1:300), anti-pAKT (1:100) primary antibodies overnight at +4° C., followed by incubation with corresponding Alexa-488 or Alex-568 conjugated secondary antibodies (1:200) for 1 hour. Finally, cells were counterstained with nuclear marker DAPI for 5 min. Slides were mounted with Fluoromount™ aqueous mounting medium (Sigma) and examined using EZC1 Eclipse laser scanning confocal microscope (Nikon), using 63×/1.4 plan Apo ns lens. Images were captured and processed using the NIS-Elements (Nikon) and ImageJ software.
To examine whether MakA affects β-catenin signaling in human colon cancer cells, HCT8 and DLD1 cells carrying mutations that inactivates APC tumor suppressor gene (Mouradov, D. et al. (2014) Cancer Res. 2014 Jun. 15; 74(12):3238-47) were used.
To address if MakA decreases the nuclear accumulation of β-catenin, cells were treated with MakA and fractionated into cytoplasmic and nuclear fractions.
As caspase-3 mediated fragmentation of β-catenin has been reported (Steinhusen, U. et al. (2000) J Biol Chem 275: 16345-16353), its role in MakA induced β-catenin fragmentation was investigated.
For orientation: In western blotting, separated proteins are transferred to a membrane and probed.

The test system of assay [2] is colon carcinoma cells. Kind of assay: Caspase inhibition and MakA-induced cell death. Conditions: pretreatment; Presto Blue, MTS, flow cytometry. The assay is classed as cell-based, human. The method, then: For cell death experiments, cells were grown on 96-well plate (1×10^4/well, Tecan Group Ltd) overnight and treated with MakA at different concentration for 48 hours at +37° C., 5% CO2. Cell death was quantified by two different biochemical methods: (1) reduction in PrestoBlue staining; and (2) reduction in MTS absorbance. Cell death is expressed as percentage (%) of untreated control cells for PrestoBlue assay or reduction in absorbance for MTS assay.
For cell death analysis, cells were treated with MakA or vehicle control for 48 h and were subjected to flow cytometry analysis for apoptotic cell death measurement using either Annexin V/Propidium iodide or Annexin V/7AAD (BD Pharmingen) staining according to manufactures instruction. Percentage of apoptotic cells was determined by BD LSRII and BD Accuri C6 flow cytometer (BD Bioscience), respectively.
To address if caspases plays an important role in MakA induced cell death, colon carcinoma cells were pretreated with zVAD-fmk, a pan caspase inhibitor; (Enzolifesciences, Cat #ALX-260-020-M001) followed by treatment with MakA.
A general note: Flow cytometry measures light scatter and fluorescence of single cells or particles in a stream.

Assay [3] has as its system advanced colorectal cancer. The following applies: cited from earlier work.
The subject of assay [4] is HCT8 cells. The assay is described as follows: MakA with 5FU, tumor cell morphology. The assay is classed as cell-based, human. Conditions: HCT8, compared to untreated control. On the procedure: B) Change in tumor cell morphology in response to MakA and 5FU or MakA at different concentration in combination with 5FU (20 μM). Scale bar=30 μm
Further, the effect on tumor cell morphology was investigated. Unlike 5FU or MakA alone, the combination of MakA and 5FU caused massive changes in tumor cell morphology (FIG. 8B).

SMILES strings stand for the structures. Where a SMILES comes first, the peptide text is derived from it. The star is where a group is joined. Cbz = O=C(OCc1ccccc1)*; CH2F = FC*

Take `COC(=O)C[C@H](NC(=O)[C@H](C)NC(=O)[C@@H](NC(=O)OCc1ccccc1)C(C)C)C(=O)CF` [zVAD-fmk, reference compound] (Cbz-Val-Ala-Asp(OMe)-CH2F): the “effect of caspase inhibitor on MakA-induced β-catenin fragmentation” value in assay [1] was “rescued both HCT8 and DLD1 cells from MakA-induced fragmentation and decrease in β-catenin”. Besides, in assay [2], the “effect of caspase inhibitor on MakA-induced cell death” value is given as “partially rescued the cells from MakA-induced cell death”.

On to `O=c1[nH]cc(F)c(=O)[nH]1` [5FU, 5-fluorouracil, reference compound], for which the overall response rate in assay [3] is listed as 10-15%. The tumor cell morphology entry in assay [4] is on record as “caused increased cell size”.

Values taken from US12533393B2, “Vibrio cholerae protein for use against cancer” (priority 2019, dated 2026).
